Results on 1 molecule are retold here after US9505798B2, “Steroid compounds as RORyt modulators and uses thereof” (New York University, priority 2010, dated 2016).

SMILES strings stand for the structures.

The test system of experiment [1] is RORγ LBD mutants (L290, C318, A494). As to the kind of experiment: Random mutagenesis of RORγ LBD, digoxin resistance in S2 reporter. Format: cell-based, mouse. To be noted: mutations at L290, C318 and A494.
For the next experiment, the target named is T1, RORα (Mus musculus, UniProt P51448).
T1 construct: mouse RORα (amino acids 142 to end); expressed in transfected cells
T1 sequence (P51448 142-523 limits assumed): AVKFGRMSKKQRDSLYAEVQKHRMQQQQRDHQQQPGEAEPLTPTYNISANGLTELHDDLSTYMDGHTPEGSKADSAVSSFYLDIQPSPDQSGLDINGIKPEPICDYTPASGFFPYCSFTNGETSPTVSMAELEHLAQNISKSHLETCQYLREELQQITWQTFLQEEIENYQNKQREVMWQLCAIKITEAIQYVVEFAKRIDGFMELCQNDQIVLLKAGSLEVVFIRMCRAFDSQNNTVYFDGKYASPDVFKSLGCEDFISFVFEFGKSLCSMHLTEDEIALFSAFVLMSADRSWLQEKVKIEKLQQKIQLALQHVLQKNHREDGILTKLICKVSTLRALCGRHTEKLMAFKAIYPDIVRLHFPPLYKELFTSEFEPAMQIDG
Briefly: S2 cell RORα luciferase reporter. The experiment is classed as cell-based. To be noted: 10 μM, FIG. 1c. An excerpt: The Drosophila S2 cell line was originally purchased from Invitrogen and was maintained in Schneider's medium supplemented with 10% heat-inactivated bovine fetal calf serum and antibiotics (Invitrogen). Gal4 DNA binding domain (G4 DBD) corresponding to amino acids 1 through 147 of Gal4 protein was PCR amplified to make a fusion construct with mouse RORγt (amino acids 79 to the carboxyl terminal end) lacking its DNA binding domain. The resulting chimeric gene was subcloned into the copper inducible pMT/V5-His A vector (Invitrogen). In a similar manner, Gal4 fusion constructs were prepared with mouse RORα (amino acids 142 to end) or Drosophila DHR3 (amino acids 120 to end). Coding sequences for firefly luciferase (Promega) were PCR amplified and subcloned into pUAST vector containing Gal4 binding enhancer sequences. Renilla luciferase construct under the polIII promoter was obtained from Dr. Dasgupta's laboratory (NYU medical center). In order to generate stable cell lines, cells were co-transfected with pMT-G4 DBD-RORγt, pMT-G4 DBD-RORα, pMT-G4 DBD-DHR3, or pMT-G4 DBDVP16 and pHygro plasmids (Invitrogen) and screened for resistant colonies in the presence of hygromycin (0.3 mg/mL). […]

For experiment [2], the system named is aryl hydrocarbon receptor (AHR). Briefly: AHR ligand FICZ effect on RORα-dependent IL-17a expression. Format: cell-based, mouse. To be noted: FICZ added.

For `C[C@H]1O[C@@H](O[C@H]2[C@@H](O)C[C@H](O[C@H]3[C@@H](O)C[C@H](O[C@H]4CC[C@@]5(C)[C@H](CC[C@@H]6[C@@H]5C[C@@H](O)[C@]5(C)[C@@H](C7=CC(=O)OC7)CC[C@]65O)C4)O[C@@H]3C)O[C@@H]2C)C[C@H](O)[C@@H]1O` [Digoxin], the “sensitivity of mutant RORγ to inhibition” value in experiment [1] is given as “much less sensitivity”. In addition, the “effect on transcriptional activity of RORα” value on RORα was “no effect”. In addition, the AHR activity result in experiment [2] is “unaffected”.
